# Results as given in ChEMBL document CHEMBL3044856, “Molecular docking of glycogen synthase kinase3- inhibitor oleanolic acid and its wound-healing activity in rats” (Med Chem Res, 2013).
# The source made the active and inactive calls. No cut-off for these calls is given here.
# Legend:
# [1] = test system: Mus musculus; experiment: Acute toxicity in Swiss albino Mus musculus (mouse) assessed as abnormal behavior up to 120 mg/kg, ip; type: organism-based; parameters: dose 120 mg/kg, route intraperitoneal; details: in vivo
# [2] = test system: Mus musculus; experiment: Wound-healing activity in Swiss albino Mus musculus (mouse) dead space wound model assessed as increase in hydroxyproline content measured per 100 g of tissue at 3 mg/ml, ip measured on day 10 (reference value: 1411.15 +/- 6.26 ug); type: functional
# [3] = test system: Mus musculus; experiment: Acute toxicity in Swiss albino Mus musculus (mouse) assessed as mortality up to 120 mg/kg, ip; type: organism-based; parameters: dose 120 mg/kg, route intraperitoneal; details: in vivo
# [4] = test system: Mus musculus; experiment: Wound-healing activity in Swiss albino Mus musculus (mouse) assessed as increase in collagenation in granulation tissue at 3 mg/ml, ip measured on day 10 by hematoxylin and eosin staining-based histological analysis relative to untreated control; type: functional, organism-based
# [5] = test system: Mus musculus; experiment: Wound-healing activity in Swiss albino Mus musculus (mouse) assessed as decrease in macrophage accumulation in granulation tissue at 3 mg/ml, ip measured on day 10 by hematoxylin and eosin staining-based histological analysis relative to untreated control; type: functional, organism-based
# [6] = test system: Mus musculus; experiment: Wound-healing activity in Swiss albino Mus musculus (mouse) incision wound model assessed as increase in tensil strength of incision wound at 12 mg/kg/day, ip measured on day 10 (reference value: 356.13 +/- 14.55 g); type: functional; details: route intraperitoneal
# [7] = test system: Mus musculus; experiment: Wound-healing activity in Swiss albino Mus musculus (mouse) excision wound model assessed as closure of excision wound area at 3 mg/ml, ip measured on day 8 (reference value: 54.64 +/- 1.17%); type: functional
# [8] = test system: Mus musculus; experiment: Wound-healing activity in Swiss albino Mus musculus (mouse) excision wound model assessed as closure of excision wound area at 3 mg/ml, ip measured on day 12 (reference value: 66.04 +/- 0.94%); type: functional
# [9] = test system: Mus musculus; experiment: Wound-healing activity in Swiss albino Mus musculus (mouse) excision wound model assessed as closure of excision wound area at 3 mg/ml, ip measured on day 16 (reference value: 81.36 +/- 0.83%); type: functional
# [10] = test system: Mus musculus; experiment: Wound-healing activity in Swiss albino Mus musculus (mouse) dead space wound model assessed as increase in dry weight of granuloma tissue at 3 mg/ml, ip measured on day 10 (reference value: 11.52 +/- 0.9 mg); type: functional
# [11] = test system: Mus musculus; experiment: Wound-healing activity in Swiss albino Mus musculus (mouse) dead space wound model assessed as increase in tissue breaking strength at 3 mg/ml, ip measured on day 10 (reference value: 366.32 +/- 14.40 g); type: functional
# [12] = test system: Mus musculus; experiment: Wound-healing activity in Swiss albino Mus musculus (mouse) excision wound model assessed as closure of excision wound area at 3 mg/ml, ip measured on day 4 (reference value: 25.32 +/- 3.31%); type: functional
# [13] = test system: Mus musculus; experiment: Wound-healing activity in Swiss albino Mus musculus (mouse) excision wound model assessed as time required for complete epithelialization of excision wound at 3 mg/ml, ip (reference value: 22.75 +/- 0.13 days); type: functional
# [14] = test system: Mus musculus; experiment: Wound-healing activity in Swiss albino Mus musculus (mouse) dead space wound model assessed as increase in wet weight of granuloma tissue at 3 mg/ml, ip measured on day 10 (reference value: 79.56 +/- 1.05 mg); type: functional
# [15] = test system: Mus musculus; experiment: Wound-healing activity in ip dosed Swiss albino Mus musculus (mouse) dead space wound model assessed as increase in hydroxyproline content measured per 100 g of tissue measured on day 10 (reference value: 1411.15 +/- 6.26 ug); type: functional
# [16] = test system: Mus musculus; experiment: Wound-healing activity in ip dosed Swiss albino Mus musculus (mouse) excision wound model assessed as closure of excision wound area measured on day 12 (reference value: 66.04 +/- 0.94%); type: functional
# [17] = test system: Mus musculus; experiment: Wound-healing activity in ip dosed Swiss albino Mus musculus (mouse) excision wound model assessed as closure of excision wound area measured on day 8 (reference value: 54.64 +/- 1.17%); type: functional
# [18] = test system: Mus musculus; experiment: Wound-healing activity in ip dosed Swiss albino Mus musculus (mouse) incision wound model assessed as increase in tensil strength of incision wound measured on day 10 (reference value: 356.13 +/- 14.55 g); type: functional
# [19] = test system: Mus musculus; experiment: Wound-healing activity in ip dosed Swiss albino Mus musculus (mouse) excision wound model assessed as closure of excision wound area measured on day 4 (reference value: 25.32 +/- 3.31%); type: functional
# [20] = test system: Mus musculus; experiment: Wound-healing activity in ip dosed Swiss albino Mus musculus (mouse) excision wound model assessed as time required for complete epithelialization of excision wound (reference value: 22.75 +/- 0.13 days); type: functional
# [21] = test system: Mus musculus; experiment: Wound-healing activity in ip dosed Swiss albino Mus musculus (mouse) excision wound model assessed as closure of excision wound area measured on day 16 (reference value: 81.36 +/- 0.83%); type: functional
# [22] = test system: Mus musculus; experiment: Wound-healing activity in ip dosed Swiss albino Mus musculus (mouse) assessed as decrease in macrophage accumulation in granulation tissue measured on day 10 by hematoxylin and eosin staining-based histological analysis relative to untreated control; type: functional, organism-based
# [23] = test system: Mus musculus; experiment: Wound-healing activity in ip dosed Swiss albino Mus musculus (mouse) dead space wound model assessed as increase in wet weight of granuloma tissue measured on day 10 (reference value: 79.56 +/- 1.05 mg); type: functional
# [24] = test system: Mus musculus; experiment: Wound-healing activity in ip dosed Swiss albino Mus musculus (mouse) dead space wound model assessed as increase in tissue breaking strength measured on day 10 (reference value: 366.32 +/- 14.40 g); type: functional
# [25] = test system: Mus musculus; experiment: Wound-healing activity in ip dosed Swiss albino Mus musculus (mouse) dead space wound model assessed as increase in dry weight of granuloma tissue measured on day 10 (reference value: 11.52 +/- 0.9 mg); type: functional
# [26] = test system: Mus musculus; experiment: Wound-healing activity in ip dosed Swiss albino Mus musculus (mouse) assessed as increase in collagenation in granulation tissue measured on day 10 by hematoxylin and eosin staining-based histological analysis relative to untreated control; type: functional, organism-based
smiles,measurement,setting,value
CC1(C)CC[C@]2(C(=O)O)CC[C@]3(C)C(=CC[C@@H]4[C@@]5(C)CC[C@H](O)C(C)(C)[C@@H]5CC[C@]43C)[C@@H]2C1 [OLEANOLIC_ACID],Activity,[1],Non-toxic
same,Activity,[2],2124.91 µg
same,Activity,[3],Non-toxic
same,Activity,[4],Active
same,Activity,[5],Active
same,Activity,[6],580.83 g
same,Activity,[7],79.11%
same,Activity,[8],86.06%
same,Activity,[9],96.82%
same,Activity,[10],26.25 mg
same,Activity,[11],599.08 g
same,Activity,[12],36.13%
same,Time,[13],18.48 days
same,Activity,[14],127.12 mg
Nc1ccc(S(=O)(=O)Nc2nccs2)cc1 [SULFATHIAZOLE],Activity,[15],2427.33 µg
same,Activity,[16],84.46%
same,Activity,[17],74.54%
same,Activity,[18],582.04 g
same,Activity,[19],39.94%
same,Time,[20],18.36 days
same,Activity,[21],96.94%
same,Activity,[22],Active
same,Activity,[23],131.4 mg
same,Activity,[24],617.39 g
same,Activity,[25],28.42 mg
same,Activity,[26],Active
